Measurements as given in patent publication US11760784B2, “Compositions comprising PEDF-derived short peptides and uses thereof” (BRIM Biotechnology, Inc., priority 2016, dated 2023).
“Also recorded” adds a separate entry of the source.

Legend:
[1] = test system: desiccating stress-induced dry eye; assay: Tear production by phenol red thread test in CEC dry eye mice; format: in vivo, C57BL/6 mice; conditions: for ability to induce tear production (alanine scanning of the 29mer): CEC dry eye mice, phenol red thread method (FIG. 9)
Experimental: (§1) Dry eye was induced by placing mice in a controlled environment chamber (CEC) as previously described (Barabino et al., 2005). Briefly, mice placed in the CEC were exposed to a relative humidity (RH)<25%, temperature of 20 to 22° C., and airflow of 15 L/min, 12 hours per day. Non-stressed (NS) mice without stress-induced dry eye were kept in a normal environment (RH >50%, no air flow, temperature of 21-23° C.) for the same duration. Corneal fluorescein staining and
Tear production was measured with phenol red-impregnated cotton threads (Zone-Quick; Oasis, Glendora, CA). The validity of this test in mice was performed as previously described (Dursun et al., 2002). The threads were held with jeweler forceps and placed in the lateral canthus for 60 seconds. The tear production is expressed in millimeters of thread that is wet by the tear and turned red.
To determine whether PDSP have therapeutic effects in a desiccating stress (DS)-induced ocular surface defects, mice were housed at controlled environment chamber (CEC) for 14 days to create ocular surface disruption. After 14 days in CEC, we used mice with fluorescence scores that are above 2 for the first experiments (FIG. 1A). […]

[2] = test system: desiccating stress-induced dry eye; assay: Corneal fluorescein staining in desiccating stress-induced dry eye (CEC) mice; format: in vivo, C57BL/6 mice; conditions: therapeutic: CEC 14 days to induce dry eye, then peptide on the eyes for 5 days
Experimental: In an animal model for dry eye diseases, mice were placed in a controlled environment chamber (CEC) to induce dry eyes as previously described (Barabino et al., 2005). Mice placed in the CEC were exposed to a relative humidity (RH)<25%, temperature of 20 to 22° C., with an airflow of 15 L/min, 12 hours per day. Non-Stressed mice were kept in a normal environment (RH >50%, no air flow, temperature of 21-23° C.) for the same duration. After 14 days, non-stressed mice were treated with vehicle, while the stressed mice were treated with either a test peptide (e.g., the 29mer PDSP) or vehicle solution (Vehicle group) for 5 days. Then, the cornea was examined with fluorescein staining.
Seven to 8-week-old female C57BL/6 mice were used for these experiments. Experimental procedures were approved by the Mackay Memorial Hospital Review Board and conducted according to the ARVO Statement for the Use of Animals in Ophthalmic and Vision Research.
as §1
Animals were anesthetized by an intraperitoneal injection of a mixture of zoletil (6 mg/kg) and xylazine (3 mg/kg). Corneal epithelial injury was determined by staining with topical fluorescein (Fluor-I-Strip, Ayerst Laboratories, Philadelphia, Pa.). Corneal fluorescein staining was examined with a slit-lamp biomicroscope under cobalt blue light and photographed with a digital camera. Dye staining of the cornea was scored in a manner as follows: score 0 for no punctuate staining; score 1 when less than one third of the cornea was stained; score 2 when two thirds or less was stained; and score 3 when more than two thirds was stained (Horwath-Winter J 2013).
To determine whether PDSP have therapeutic effects in a desiccating stress (DS)-induced ocular surface defects, mice were housed at controlled environment chamber (CEC) for 14 days to create ocular surface disruption. After 14 days in CEC, we used mice with fluorescence scores that are above 2 for the first experiments (FIG. 1A). Subsequently, dry eyes were treated topically with PDSP at 25-200 μM (3 times/day) or PDSP vehicle (1% CMC in BSS) for another 5 days while maintaining the same desiccating stress protocol.
To investigate whether the PDSP can suppress DS-induced corneal epithelial disruption, we applied the 14-day desiccating stress protocol to mice, and treated these mice topically with PDSP 3 times a day.

[3] = test system: C2C12 cells; assay: Cell viability of C2C12 cells in culture (MTT assay), alanine scanning; format: cell-based; conditions: C2C12 cell cultures (FIG. 10)
Experimental: This was tested with cell viability in cell cultures. […] Cell viability may be assessed with staining and cell number counts or with MTT assays. These techniques are well known in the art.

[4] = test system: desiccating stress-induced dry eye; assay: Corneal fluorescein staining in desiccating stress-induced dry eye (CEC) mice; format: in vivo, C57BL/6 mice; conditions: CEC 14 days, then peptide for 3 days (FIG. 11); listed as mouse PDSP

Substance | ability to induce tear production (alanine scanning of the 29mer) [1] | corneal surface damage by fluorescein staining [2] | ability to sustain/enhance viabilities of the cells (alanine scanning of the 29mer) [3] | tear production (phenol red thread), human vs mouse PDSP ([1]; CEC 14 days, then peptide for 3 days (FIG. 12), listed as mouse PDSP) | corneal damage by corneal fluorescein staining, human vs mouse 29mer [4]
A96G: human PDSP 29mer with glycine substitution at residue 4 (A96) (Ac-SLGGEQRTESIIHRALYYDLISSPDIHGT-NH2; UniProt P36955 93-121, looked up, variant A96G) | substantial losses of abilities of PDSP to induce tear production | substantial loss of PDSP activity | substantially abolished |  | 
I104A: human PDSP 29mer with alanine substitution at residue 12 (I104) (SLGAEQRTESIAHRALYYDLISSPDIHGT; UniProt P36955 93-121, looked up, variant I104A) | substantial losses of abilities of PDSP to induce tear production | substantial loss of PDSP activity | substantially abolished |  | 
Q98A: human PDSP 29mer with alanine substitution at residue 6 (Q98) (SLGAEARTESIIHRALYYDLISSPDIHGT; UniProt P36955 93-121, looked up, variant Q98A) | substantial losses of abilities of PDSP to induce tear production | substantial loss of PDSP activity | substantially abolished |  | 
R106A: human PDSP 29mer with alanine substitution at residue 14 (R106) (SLGAEQRTESIIHAALYYDLISSPDIHGT; UniProt P36955 93-121, looked up, variant R106A) | substantial losses of abilities of PDSP to induce tear production | substantial loss of PDSP activity | substantially abolished |  | 
moPDSP 29mer: corresponding mouse sequence SLGAEHRTESVIHRALYYDLITNPDIHST (SEQ ID NO:5) (listed as Mus musculus) |  |  |  | capable of restore; also recorded: improved tear productions to the same extent | capable of restore the ocular surface damages
